Where two headings read alike, the source gives them in different places. Where a SMILES comes first, the peptide text is derived from it. Bridges are numbered along the chain shown (N, C = ends). [ ]: non-standard residue; d: D form. The star is where a group is joined. Hexanoyl = CCCCCC(=O)*
Molecular target: T1, NPR-B (Homo sapiens, UniProt P20594)
T1 construct: a functional assay using endogenously NPR-B expressing GTM-3 cells; endogenous in cells; host or cells: GTM-3 (transformed human trabecular meshwork cells)
T1 sequence (P20594 23-1047): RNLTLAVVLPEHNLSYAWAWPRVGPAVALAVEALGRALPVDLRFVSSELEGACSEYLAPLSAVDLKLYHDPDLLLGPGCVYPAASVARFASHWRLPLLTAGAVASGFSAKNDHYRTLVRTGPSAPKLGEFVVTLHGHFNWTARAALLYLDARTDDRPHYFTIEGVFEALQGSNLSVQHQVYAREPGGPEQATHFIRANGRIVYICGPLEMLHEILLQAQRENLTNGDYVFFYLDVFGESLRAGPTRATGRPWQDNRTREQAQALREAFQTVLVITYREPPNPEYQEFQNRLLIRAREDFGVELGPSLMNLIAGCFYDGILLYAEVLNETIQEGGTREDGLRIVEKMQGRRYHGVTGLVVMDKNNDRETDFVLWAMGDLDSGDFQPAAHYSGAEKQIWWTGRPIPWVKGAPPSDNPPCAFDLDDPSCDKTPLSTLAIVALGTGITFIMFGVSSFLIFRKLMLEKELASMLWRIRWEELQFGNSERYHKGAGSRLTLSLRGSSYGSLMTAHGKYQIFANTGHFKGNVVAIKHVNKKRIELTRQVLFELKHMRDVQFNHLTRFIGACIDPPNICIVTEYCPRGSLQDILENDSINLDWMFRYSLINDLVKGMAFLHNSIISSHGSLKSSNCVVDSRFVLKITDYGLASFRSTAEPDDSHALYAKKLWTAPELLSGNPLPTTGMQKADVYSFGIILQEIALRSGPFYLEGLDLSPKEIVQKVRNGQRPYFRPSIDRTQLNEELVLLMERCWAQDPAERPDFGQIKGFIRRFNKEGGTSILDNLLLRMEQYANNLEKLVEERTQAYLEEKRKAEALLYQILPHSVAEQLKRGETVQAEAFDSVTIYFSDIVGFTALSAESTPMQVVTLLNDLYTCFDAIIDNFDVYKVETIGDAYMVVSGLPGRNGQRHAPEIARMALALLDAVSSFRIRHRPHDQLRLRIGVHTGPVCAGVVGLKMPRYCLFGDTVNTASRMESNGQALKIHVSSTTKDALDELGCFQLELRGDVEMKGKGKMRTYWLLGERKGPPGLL
Assay: NPR-B induced production of cyclic GMP in GTM-3 cells
Assay type: cell-based
Description: The efficacy and potency of compounds to activate NPR-B were evaluated in a functional assay using endogenously NPR-B expressing GTM-3 cells (Pang et al. 1994, Curr Eye Res 13:51-63). In this assay the dose dependent production of cyclic GMP (cGMP) is determined and Emax (maximum activation) and EC50 values are calculated.
The cell culture medium is aspirated and each well is washed with 200 μl DMEM/Ham's F12=Medium (Gibco). Then, 200 μl Medium supplemented with 1 mM IBMX (3-Isobutyl-1-methyl-xanthin, Sigma) is added to each well and incubated for 15 min. at room temperature.
Final compound concentrations are in the range from 45 μM to 20 nM.

[1] = GTM-3 cells, group needs both EC50 and Emax criteria, checked A then B then C, read-out: Activity (group): NPR-B activation, EC50 and Emax (CNP = 100%)
[2] = Activity (group): NPR-B activation, EC50 and Emax (CNP = 100%), GTM-3 cells, group needs both EC50 and Emax criteria, checked A then B then C
[3] = Activity (group): NPR-B activation, EC50 and Emax (CNP = 100%)

EC50 [1] | SMILES | other results
< 5 µM | CC[C@H](C)[C@@H]1NC(=O)[C@H](CCCNC(=N)N)NC(=O)[C@H](CC(=O)O)NC(=O)[C@H](CC(C)C)NC(=O)[C@H](CCCCN)NC(=O)[C@H](CC(C)C)NC(=O)CNC(=O)[C@H](Cc2ccccc2)NC(=O)[C@H](Cc2c[nH]cn2)NC(=O)[C@@H](NC(=O)[C@@H](N)CCSC)CSSC[C@@H](C(=O)N[C@@H](CO)C(=O)N[C@@H](CCCNC(=N)N)C(N)=O)NC(=O)[C@H](CO)NC1=O [compound 24] (H-MCHFGLKLDRISCSR-NH2; disulfide 2-13) | –
< 5 µM | CC[C@H](C)[C@@H]1NC(=O)[C@H](CCCNC(=N)N)NC(=O)[C@H](CC(=O)O)NC(=O)[C@H](CC(C)C)NC(=O)[C@H](CCCCN)NC(=O)[C@H](CC(C)C)NC(=O)CNC(=O)[C@H](Cc2ccccc2)NC(=O)[C@H](CO)NC(=O)[C@@H](NC(=O)[C@@H](N)CCSC)CSSC[C@@H](C(N)=O)NC(=O)[C@H](CO)NC1=O [compound 18] | –
– | CCCCCC(=O)N[C@H]1CSSC[C@@H](C(N)=O)NC(=O)[C@H](CO)NC(=O)[C@H]([C@@H](C)CC)NC(=O)[C@H](CCCNC(=N)N)NC(=O)[C@H](CC(=O)O)NC(=O)[C@H](CC(C)C)NC(=O)[C@@H]2CCCN2C(=O)[C@H](CC(C)C)NC(=O)CNC(=O)[C@H](Cc2ccccc2)NC(=O)[C@H]2CCCN2C1=O [compound 91] (Hexanoyl-C[dP]FGLPLDRISC-NH2; disulfide 1-12) | EC50 [2]: < 1 µM
< 5 µM | CC[C@H](C)[C@@H]1NC(=O)[C@H](CCCNC(=N)N)NC(=O)[C@H](CC(=O)O)NC(=O)[C@H](CC(C)C)NC(=O)[C@H](CCCCN)NC(=O)[C@H](CC(C)C)NC(=O)CNC(=O)[C@H](Cc2ccccc2)NC(=O)[C@H]2CCCN2C(=O)[C@@H](NC(=O)[C@@H](N)CCSC)CSSC[C@@H](C(N)=O)NC(=O)[C@H](CO)NC1=O [compound 37] | –
– | CCCCCC(=O)N[C@H]1CSSC[C@@H](C(N)=O)NC(=O)[C@H](CO)NC(=O)[C@H]([C@@H](C)CC)NC(=O)[C@H](CCCNC(=N)N)NC(=O)[C@H](CC(=O)O)NC(=O)[C@H]([C@@H](C)CC)NC(=O)[C@@H]2CCCN2C(=O)[C@H](CC(C)C)NC(=O)CNC(=O)[C@H](Cc2ccccc2)NC(=O)[C@@H](C)NC1=O [compound 88] (Hexanoyl-C[dA]FGLPIDRISC-NH2; disulfide 1-12) | EC50 [2]: < 1 µM
< 5 µM | CC[C@H](C)[C@@H]1NC(=O)[C@H](CCCNC(=N)N)NC(=O)[C@H](CC(=O)O)NC(=O)[C@H](CC(C)C)NC(=O)[C@H](CCCCN)NC(=O)[C@H](CC(C)C)NC(=O)CNC(=O)[C@H](Cc2ccccc2)NC(=O)[C@@H](CO)NC(=O)[C@@H](NC(=O)[C@@H](N)CCSC)CSSC[C@@H](C(N)=O)NC(=O)[C@H](CO)NC1=O [compound 39] | –
< 5 µM | CC[C@H](C)[C@@H]1NC(=O)[C@H](CCCNC(=N)N)NC(=O)[C@H](CC(=O)O)NC(=O)[C@H](CC(C)C)NC(=O)[C@H](CCCCN)NC(=O)[C@H](CC(C)C)NC(=O)CNC(=O)[C@H](Cc2ccccc2)NC(=O)[C@H](Cc2c[nH]cn2)NC(=O)[C@@H](NC(=O)[C@@H](N)CCSC)CSSC[C@@H](C(=O)N[C@@H](Cc2ccc(O)cc2)C(=O)N[C@@H](Cc2c[nH]cn2)C(N)=O)NC(=O)[C@H](CO)NC1=O [compound 28] (H-MCHFGLKLDRISCYH-NH2; disulfide 2-13) | –
– | CC[C@H](C)[C@@H]1NC(=O)[C@H](CCCNC(=N)N)NC(=O)[C@H](CC(=O)O)NC(=O)[C@H](CC(C)C)NC(=O)[C@H](CCCCN)NC(=O)[C@H](Cc2c[nH]cn2)NC(=O)CNC(=O)[C@H](Cc2ccccc2)NC(=O)[C@H](Cc2c[nH]cn2)NC(=O)[C@@H](NC(=O)[C@@H](N)CCSC)CSSC[C@@H](C(N)=O)NC(=O)[C@H](CO)NC1=O [compound 20] (H-MCHFGHKLDRISC-NH2; disulfide 2-13) | EC50 [2]: < 5 µM
– | CCCCCC(=O)N[C@H]1CSSC[C@@H](C(N)=O)NC(=O)[C@H](CO)NC(=O)[C@H]([C@@H](C)CC)NC(=O)[C@H](CCCNC(=N)N)NC(=O)[C@H](CC(=O)O)NC(=O)[C@H]([C@@H](C)CC)NC(=O)[C@H](CCCCN)NC(=O)[C@H](CC(C)C)NC(=O)CNC(=O)[C@H](Cc2ccccc2)NC(=O)[C@H]2CCCN2C1=O [compound 92] (Hexanoyl-C[dP]FGLKIDRISC-NH2; disulfide 1-12) | EC50 [3]: < 1 µM
– | CC[C@H](C)[C@@H]1NC(=O)[C@H](CCCNC(=N)N)NC(=O)[C@H](CC(=O)O)NC(=O)[C@H](CCSC)NC(=O)[C@H](CCCNC(=N)N)NC(=O)CNC(=O)CNC(=O)[C@H](Cc2ccccc2)NC(=O)[C@H](Cc2c[nH]cn2)NC(=O)[C@@H](NC(=O)[C@@H](N)CCSC)CSSC[C@@H](C(=O)N[C@@H](Cc2ccc(O)cc2)C(=O)N[C@@H](CCCNC(=N)N)C(N)=O)NC(=O)[C@H](CO)NC1=O [mini-ANP, reference compound] (H-MCHFGGRMDRISCYR-NH2; disulfide 2-13) | Emax (GTM3, GTM-3 cells, FIG. 2, CNP = 100%, read-out: Emax (maximum activation) relative to CNP): 0%; EC50 (GTM-3 cells, FIG. 2, highest concentration 45 μM, read-out: EC50, cyclic GMP production): > 45 µM
– | CC[C@H](C)[C@@H]1NC(=O)[C@H](CCCNC(=N)N)NC(=O)[C@H](CC(=O)O)NC(=O)[C@H](CC(C)C)NC(=O)[C@H](CCCCN)NC(=O)[C@H](CC(C)C)NC(=O)CNC(=O)[C@H](Cc2ccccc2)NC(=O)[C@@H](C)NC(=O)[C@@H](NC(=O)Cc2ccccc2)CSSC[C@@H](C(N)=O)NC(=O)[C@H](CO)NC1=O [compound 69] | EC50 [2]: < 5 µM
– | CC[C@H](C)[C@@H]1NC(=O)[C@H](CCCNC(=N)N)NC(=O)[C@H](CC(=O)O)NC(=O)[C@H](CC(C)C)NC(=O)[C@H](CCCCN)NC(=O)[C@H](CC(C)C)NC(=O)CNC(=O)[C@H](Cc2ccccc2)NC(=O)[C@@H](C)NC(=O)[C@@H](NC(=O)CC(C)C)CSSC[C@@H](C(N)=O)NC(=O)[C@H](CO)NC1=O [compound 63] | EC50 [3]: < 5 µM
– | CC[C@H](C)[C@@H]1NC(=O)[C@H](CCCNC(=N)N)NC(=O)[C@H](CC(=O)O)NC(=O)[C@H](CC(C)C)NC(=O)[C@H](CCCCN)NC(=O)[C@H](CC(C)C)NC(=O)CNC(=O)[C@H](Cc2ccccc2)NC(=O)[C@@H](C)NC(=O)[C@@H](NC(=O)CCCC(C)C)CSSC[C@@H](C(N)=O)NC(=O)[C@H](CO)NC1=O [compound 67] | EC50 [3]: < 1 µM

SMILES | EC50 [1] | other results
CC[C@H](C)[C@@H]1NC(=O)[C@H](CCCNC(=N)N)NC(=O)[C@H](CC(=O)O)NC(=O)[C@H](CC(C)C)NC(=O)[C@H](CCCCN)NC(=O)[C@H](CC(C)C)NC(=O)CNC(=O)[C@H](Cc2ccccc2)NC(=O)[C@H](Cc2c[nH]cn2)NC(=O)[C@H](NC(=O)[C@@H](N)CCSC)CSSC[C@H](C(N)=O)NC(=O)[C@H](CO)NC1=O [compound 13] | < 15 µM | –
CCCCCC(=O)N[C@H]1CSSC[C@@H](C(N)=O)NC(=O)[C@H](CO)NC(=O)[C@H]([C@@H](C)CC)NC(=O)[C@H](CCCNC(=N)N)NC(=O)[C@H](CC(=O)O)NC(=O)[C@H](CC(C)C)NC(=O)[C@H](CCCCN)NC(=O)[C@H](CC(C)C)NC(=O)CNC(=O)[C@H](Cc2cccc(C(F)(F)F)c2)NC(=O)[C@@H](C)NC1=O [compound 105] | < 15 µM | –
CCCCCC(=O)N[C@H]1CSSC[C@@H](C(N)=O)NC(=O)[C@H](CO)NC(=O)C2(CCOCC2)NC(=O)[C@H](CCCNC(=N)N)NC(=O)[C@H](CC(=O)O)NC(=O)[C@H](CC(C)C)NC(=O)[C@H](CCCCN)NC(=O)[C@H](CC(C)C)NC(=O)CNC(=O)[C@H](Cc2ccccc2)NC(=O)[C@@H](C)NC1=O [compound 116] | < 15 µM | –
CC[C@H](C)[C@@H]1NC(=O)[C@H](CCCNC(=N)N)NC(=O)[C@H](CC(=O)O)NC(=O)[C@H](CC(C)C)NC(=O)[C@H](CCCCN)NC(=O)[C@H](C)NC(=O)CNC(=O)[C@H](Cc2ccccc2)NC(=O)[C@H](Cc2c[nH]cn2)NC(=O)[C@@H](NC(=O)[C@@H](N)CCSC)CSSC[C@@H](C(N)=O)NC(=O)[C@H](CO)NC1=O [compound 9] (H-MCHFGAKLDRISC-NH2; disulfide 2-13) | < 15 µM | –
